Assays:
rape = assay: Test C preemergence/postemergence greenhouse plant response rating 0 to 100; format: in vivo, Brassica napus; settings: PREEMERGENCE; for Plant response rating, Rape: 0 to 100 scale
Text: (§1) The compounds evaluated in this test were formulated in a non-phytoxic solvent and applied to the soil surface before plant seedlings emerged (preemergence application), to water that covered the soil surface (flood application), and to plants that were in the one-to-four leaf stage (postemergence application). A sandy loam soil was used for the preemergence and postemergence tests, while a silt loam soil was used in the flood test. Water depth was approximately 2.5 cm for the flood test and was maintained at this level for the duration of the test. Plant species in the preemergence and postemergence tests consisted of barley (Hordeum vulgare), bedstraw (Galium aparine), blackgrass (Alopecurus myosuroides), chickweed (Stellaria media), corn (Zea mays), cotton (Gossypium hirsutum), crabgrass (Digitaria sanguinalis), downy brome (Bromus tectorum), giant foxtail (Setaria faberii), lambsquarters (Chenopodium album), morningglory (Ipomoea hederacea), pigweed ([…]), rape (Brassica napus), ryegrass (Lolium multiflorum), sorghum (Sorghum bicolor), soybean (Glycine max), speedwell (Veronica persica), sugar beet (Beta vulgaris), velvetleaf (Abutilon theophrasti), wheat (Triticum aestivum), wild buckwheat (Polygonum convolvulus), and wild oat (Avena fatua). All plant species were planted one day before application of the compound for the preemergence portion-of this test. Plantings of these species were adjusted to produce plants of appropriate size for the post-emergence portion of the test. […] All plant species were grown using normal greenhouse practices. Visual evaluations of injury expressed on treated plants, when compared to untreated controls, were recorded approximately fourteen to twenty one days after application of the test compound. […] A dash (-) response means no test result.

lambsquarters [1] = assay: as above; format: in vivo, Chenopodium album; settings: PREEMERGENCE; for Plant response rating Lambsquarters: 0 to 100 scale
Text: as §1

soybean [2] = assay: Test B preemergence/postemergence greenhouse plant response rating 0 to 10; format: in vivo, Glycine max; settings: 0 to 10 scale
Outline: (§2)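 Test chemicals, dissolved in a non-phytotoxic solvent, were applied to soil at planting and, at the same time, over foliage of seedlings at the one to four leaf stage.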

corn = assay: Test C preemergence/postemergence greenhouse plant response rating 0 to 100; format: in vivo, Zea mays; settings: PREEMERGENCE; for Plant response rating, Corn: 0 to 100 scale
Text: as §1

velvetleaf [3] = assay: Test B preemergence/postemergence greenhouse plant response rating 0 to 10; format: in vivo, Abutilon theophrasti; settings: 0 to 10 scale
Outline: as §2

lambsquarters [4] = assay: as above; format: in vivo, Chenopodium album; settings: 0 to 10 scale
Outline: as §2

sorghum = assay: Test C preemergence/postemergence greenhouse plant response rating 0 to 100; format: in vivo, Sorghum bicolor; settings: PREEMERGENCE
Text: as §1

sugar beet = assay: as above; format: in vivo, Beta vulgaris; settings: PREEMERGENCE
Text: as §1

soybean [5] = assay: as above; format: in vivo, Glycine max; settings: PREEMERGENCE
Text: as §1

cotton = assay: Test B preemergence/postemergence greenhouse plant response rating 0 to 10; format: in vivo, Gossypium hirsutum; settings: 0 to 10 scale
Outline: as §2

wild buckwheat = assay: as above; format: in vivo, Polygonum convolvulus; settings: 0 to 10 scale
Outline: as §2

purple nutsedge = assay: as above; format: in vivo, Cyperus rotundus; settings: 0 to 10 scale
Outline: as §2

rice = assay: as above; format: in vivo, Oryza sativa; settings: 0 to 10 scale
Outline: as §2

morningglory = assay: Test C preemergence/postemergence greenhouse plant response rating 0 to 100; format: in vivo, Ipomoea hederacea; settings: PREEMERGENCE; for Plant response rating, Morningglory: 0 to 100 scale
Text: as §1

velvetleaf [6] = assay: as above; format: in vivo, Abutilon theophrasti; settings: PREEMERGENCE
Text: as §1

barley = assay: as above; format: in vivo, Hordeum vulgare; settings: PREEMERGENCE; for Plant response rating Barley Igri: 0 to 100 scale
Text: as §1

cheatgrass = assay: Test B preemergence/postemergence greenhouse plant response rating 0 to 10; format: in vivo, Bromus secalinus; settings: 0 to 10 scale
Outline: as §2

CCCN1C(=O)COc2cc(F)c(-c3nn4c(c3Br)CCCC4)cc21 [Compound 63]
Plant response rating, Rape (rape; 62 g/ha): 85 | Plant response rating, Rape (rape; 250 g/ha): 100 | Plant response rating (0 to 100), Rape (rape; Rate 4 g/ha): 0 | Plant response rating (0 to 100), Rape (rape; Rate 16 g/ha): 20 | Plant response rating Lambsquarters (lambsquarters [1]; 62 g/ha): 95 | Plant response rating Lambsquarters (lambsquarters [1]; 250 g/ha): 100 | Plant response rating (0 to 100), Lambsquarters (lambsquarters [1]; Rate 4 g/ha): 10 | Plant response rating (0 to 100), Lambsquarters (lambsquarters [1]; Rate 16 g/ha): 20 | Plant response rating, Soybean (soybean [2]; POSTEMERGENCE, Rate 10 g/ha): 6 | Plant response rating, Soybean (soybean [2]; POSTEMERGENCE, Rate 50 g/ha): 5 | Plant response rating, Soybean (soybean [2]; PREEMERGENCE, Rate 50 g/ha): 0 | Plant response rating, Corn (corn; 62 g/ha): 20 | Plant response rating, Corn (corn; 250 g/ha): 30 | Plant response rating (0 to 100), Corn (corn; Rate 4 g/ha): 0 | Plant response rating (0 to 100), Corn (corn; Rate 16 g/ha): 0 | Plant response rating, Velvetleaf (velvetleaf [3]; POSTEMERGENCE, Rate 10 g/ha): 8 | Plant response rating, Velvetleaf (velvetleaf [3]; POSTEMERGENCE, Rate 50 g/ha): 10 | Plant response rating, Velvetleaf (velvetleaf [3]; PREEMERGENCE, Rate 50 g/ha): 7 | Plant response rating, Lambsquarter (lambsquarters [4]; POSTEMERGENCE, Rate 10 g/ha): 9 | Plant response rating, Lambsquarter (lambsquarters [4]; POSTEMERGENCE, Rate 50 g/ha): 10 | Plant response rating, Lambsquarter (lambsquarters [4]; PREEMERGENCE, Rate 50 g/ha): 10 | Plant response rating, Sorghum (sorghum; 250 g/ha, 0 to 100 scale): 20 | Plant response rating (0 to 100), Sorghum (sorghum; Rate 4 g/ha): 0 | Plant response rating (0 to 100), Sorghum (sorghum; Rate 16 g/ha): 0 | Plant response rating, Sugar beet (sugar beet; 250 g/ha, 0 to 100 scale): 100 | Plant response rating (0 to 100), Sugar beet (sugar beet; Rate 4 g/ha): 10 | Plant response rating (0 to 100), Sugar beet (sugar beet; Rate 16 g/ha): 100 | Plant response rating, Soybean (soybean [5]; 250 g/ha, 0 to 100 scale): 20 | Plant response rating (0 to 100), Soybean (soybean [5]; Rate 4 g/ha): 0 | Plant response rating (0 to 100), Soybean (soybean [5]; Rate 16 g/ha): 0 | Plant response rating, Cotton (cotton; POSTEMERGENCE, Rate 10 g/ha): 9 | Plant response rating, Cotton (cotton; POSTEMERGENCE, Rate 50 g/ha): 10 | Plant response rating, Cotton (cotton; PREEMERGENCE, Rate 10 g/ha): 0 | Plant response rating, Cotton (cotton; PREEMERGENCE, Rate 50 g/ha): 2 | Plant response rating, Wild buckwheat (wild buckwheat; POSTEMERGENCE, Rate 10 g/ha): 9 | Plant response rating, Wild buckwheat (wild buckwheat; POSTEMERGENCE, Rate 50 g/ha): 10 | Plant response rating, Wild buckwheat (wild buckwheat; PREEMERGENCE, Rate 50 g/ha): 10 | Plant response rating, Nutsedge (purple nutsedge; POSTEMERGENCE, Rate 10 g/ha): 1 | Plant response rating, Nutsedge (purple nutsedge; POSTEMERGENCE, Rate 50 g/ha): 6 | Plant response rating, Nutsedge (purple nutsedge; PREEMERGENCE, Rate 50 g/ha): 0 | Plant response rating, Rice (rice; POSTEMERGENCE, Rate 10 g/ha): 3 | Plant response rating, Rice (rice; POSTEMERGENCE, Rate 50 g/ha): 5 | Plant response rating, Rice (rice; PREEMERGENCE, Rate 50 g/ha): 0 | Plant response rating, Morningglory (morningglory; 62 g/ha): 40 | Plant response rating, Morningglory (morningglory; 250 g/ha): 100 | Plant response rating (0 to 100), Morningglory (morningglory; Rate 4 g/ha): 0 | Plant response rating (0 to 100), Morningglory (morningglory; Rate 16 g/ha): 10 | Plant response rating, Velvetleaf (velvetleaf [6]; 250 g/ha, 0 to 100 scale): 100 | Plant response rating (0 to 100), Velvetleaf (velvetleaf [6]; Rate 4 g/ha): 0 | Plant response rating (0 to 100), Velvetleaf (velvetleaf [6]; Rate 16 g/ha): 20 | Plant response rating Barley Igri (barley; 62 g/ha): 10 | Plant response rating Barley Igri (barley; 250 g/ha): 40 | Plant response rating (0 to 100), Barley Igri (barley; Rate 4 g/ha): 0 | Plant response rating (0 to 100), Barley Igri (barley; Rate 16 g/ha): 0 | Plant response rating, Cheatgrass (cheatgrass; POSTEMERGENCE, Rate 10 g/ha): 4 | Plant response rating, Cheatgrass (cheatgrass; POSTEMERGENCE, Rate 50 g/ha): 4 | Plant response rating, Cheatgrass (cheatgrass; PREEMERGENCE, Rate 10 g/ha): 2 | Plant response rating, Cheatgrass (cheatgrass; PREEMERGENCE, Rate 50 g/ha): 2
